The values below come from ChEMBL document CHEMBL1137634, “A cysteine protease inhibitor cures Chagas' disease in an immunodeficient-mouse model of infection” (2007).

The structures appear in SMILES notation. The source made the active and inactive calls. The calls are words filed in the database; no cut-off is given here.

The subject of experiment [1] is Trypanosoma cruzi. In words: Antitrypanosomal activity against Trypanosoma cruzi CA1/72 infected in immunocompetent C3HeB/FeJ mouse assessed as protection against lethal acute Chaga's disease at 50 mg/kg, ip twice daily for 27 days. Format: functional. Conditions: route intraperitoneal.
Experiment [2] has as its system Trypanosoma cruzi. In words: Antitrypanosomal activity against Trypanosoma cruzi CA1/72 infected in recombinase Rag1 deficient mouse assessed as protection against lethal acute Chaga's disease at 50 mg/kg, ip twice daily for 27 days. Format: functional. Conditions: route intraperitoneal.
Experiment [3] has as its system Trypanosoma cruzi. As to the kind of experiment: Antitrypanosomal activity against Trypanosoma cruzi CA1/72 infected in recombinase Rag1 deficient mouse assessed as survival from lethal infection at 50 mg/kg, ip twice daily for 27 days. It is filed as functional. Conditions: route intraperitoneal.
Experiment [4] has as its system Trypanosoma cruzi. In words: Antitrypanosomal activity against Trypanosoma cruzi CA1/72 infected in recombinase Rag1 deficient mouse assessed as protection against heart infection at 50 mg/kg, ip twice daily for 27 days measured at 16 to 24 weeks postinfection by histopathology. Format: functional, organism-based. Also noted: dose 50 mg/kg.
For experiment [5], the system named is Trypanosoma cruzi. As to the kind of experiment: Antitrypanosomal activity against Trypanosoma cruzi CA1/72 infected in recombinase Rag1 deficient mouse assessed as protection against skeletal muscle infection at 50 mg/kg, ip twice daily for 27 days measured at 16 to 24 weeks postinfection by histopathology. It is filed as functional, organism-based. Also noted: dose 50 mg/kg. To be noted: Muscle tissue.

In experiment [6] the test system is Trypanosoma cruzi. In words: Antitrypanosomal activity against Trypanosoma cruzi CA1/72 infected in recombinase Rag1 deficient mouse assessed as protection against liver infection at 50 mg/kg, ip twice daily for 27 days measured at 16 to 24 weeks postinfection by histopathology. It is filed as functional, organism-based. More on the design: dose 50 mg/kg.
Experiment [7] has as its system Trypanosoma cruzi. As to the kind of experiment: Antitrypanosomal activity against Trypanosoma cruzi CA1/72 infected in recombinase Rag1 deficient mouse assessed as protection against spleen infection at 50 mg/kg, ip twice daily for 27 days measured at 16 to 24 weeks postinfection by histopathology. It is filed as functional, organism-based. Also noted: dose 50 mg/kg.

Experiment [8] concerns Trypanosoma cruzi. As to the kind of experiment: Antitrypanosomal activity against Trypanosoma cruzi CA1/72 infected in recombinase Rag1 deficient mouse assessed as protection against colon infection at 50 mg/kg, ip twice daily for 27 days measured at 16 to 24 weeks postinfection by histopathology. More on the design: dose 50 mg/kg. It is filed as functional, organism-based.

Experiment [9] relates to Trypanosoma cruzi. As to the kind of experiment: Antitrypanosomal activity against Trypanosoma cruzi CA1/72 infected in recombinase Rag1 deficient mouse assessed as Trypanosoma-specific kinetoplast DNA in blood at 50 mg/kg, ip twice daily for 27 days by PCR. Format: functional, organism-based. Also noted: dose 50 mg/kg.
Experiment [10] relates to Trypanosoma cruzi. As to the kind of experiment: Antitrypanosomal activity against Trypanosoma cruzi CA1/72 infected in recombinase Rag1 deficient mouse blood assessed as Trypanosoma-specific kinetoplast DNA in blood at 50 mg/kg, ip twice daily for 27 days measured after 80 to 160 days post-infection by PCR. It is filed as functional, organism-based. Also noted: dose 50 mg/kg.

Experiment [11] has as its system Trypanosoma cruzi. In words: Antitrypanosomal activity against Trypanosoma cruzi CA1/72 infected in recombinase Rag1 deficient mouse assessed as Trypanosoma-specific kinetoplast DNA in heart at 50 mg/kg, ip twice daily for 27 days by PCR. Format: functional, organism-based. Also noted: dose 50 mg/kg.
Experiment [12] relates to Trypanosoma cruzi. In words: Antitrypanosomal activity against Trypanosoma cruzi CA1/72 infected in recombinase Rag1 deficient mouse assessed as Trypanosoma-specific kinetoplast DNA in spleen at 50 mg/kg, ip twice daily for 27 days by PCR. It is filed as functional, organism-based. More on the design: dose 50 mg/kg.
The test system of experiment [13] is Trypanosoma cruzi. In words: Antitrypanosomal activity against Trypanosoma cruzi CA1/72 infected in recombinase Rag1 deficient mouse assessed as Trypanosoma-specific kinetoplast DNA in liver at 50 mg/kg, ip twice daily for 27 days by PCR. Format: functional, organism-based. More on the design: dose 50 mg/kg.

`CN1CCN(C(=O)N[C@@H](Cc2ccccc2)C(=O)N[C@H](/C=C/S(=O)(=O)c2ccccc2)CCc2ccccc2)CC1` [K-777]: the Activity is listed as 100% in the experiment with Trypanosoma cruzi [1] and 60% in the experiment with Trypanosoma cruzi [2]. Besides, the Survival with Trypanosoma cruzi [3] is 150 days. In addition, the result in the experiment with Trypanosoma cruzi [4], in the experiment with Trypanosoma cruzi [5], in the experiment on Trypanosoma cruzi [6], with Trypanosoma cruzi [7], in the experiment with Trypanosoma cruzi [8] and in the experiment on Trypanosoma cruzi [10] was Active. The outcome with Trypanosoma cruzi [11], with Trypanosoma cruzi [12] and in the experiment on Trypanosoma cruzi [13] was Active. Moreover, in the experiment with Trypanosoma cruzi [9], the outcome was inactive.
